Legend:
[1] = tested on: corpus callosum of mice following injection of lysolecithin; assay: Lysolecithin toxin model of focal demyelination; type: in vivo, C57BL/6 mice; conditions: 8 days after lysolecithin injection, daily i.p. from 7 days before to 8 days after, sobetirome 1.0 mg/kg/day, T3 0.4 mg/kg/day
Procedure: FIG. 1: Sobetirome reduced demyelination in the corpus callosum of mice following injection of lysolecithin. Top, BlackGold® stain is specific for myelin fibers and cresyl violet is used as a counterstain. Mice received stereotactic injections of 2 μL of PBS or 2% lysolecithin in the corpus callosum. A white arrow indicates the path of the injection needle and a black box indicates the lesion site. An enlarged image of the boxed lesion site is shown to the right. Bottom, brain sections of 30 μm were stained with FluoroMyelin™, anti-PDGFR-α and DAPI. Hypothyroidism was induced with drinking water treatment, and both hypothyroid and control mice received vehicle injections. T3 (0.4 mg/kg) and sobetirome (1 mg/kg) were administered by daily i.p. injections starting 7 days before stereotactic injection of lysolecithin. Mice were euthanized 8 days after stereotactic injection of 2% lysolecithin, and brains were harvested and processed for histological analysis.
Lysolecithin was injected into the corpus callosum using stereotactic equipment at the x, y, z coordinates of +1.000, +1.050, and +2.000 mm from the Bregma point using a beveled needle with the bevel facing caudally. To minimize trauma, 2 μL of 2% lysolecithin or 2 μL of PBS was injected over four minutes using a micropump injector and the beveled needle was held in place for five minutes before withdrawal. […]

[2] = tested on: C57BL/6 mice with EAE; assay: EAE induced with MOG 35-55 peptide; type: in vivo, C57BL/6 female mice
Procedure: FIG. 2: Sobetirome reduces demyelination in mice with EAE. […] EAE was induced in female mice with MOG 35-55 peptide. On day 17 post immunization, mice were randomized based on their EAE scores and daily i.p. injections of sobetirome (n=8) or vehicle (n=8) were started. Mice were euthanized after 11 days of treatment and spinal cords were prepared for histological evaluation. The mean percentage of ventrolateral demyelination for vehicle treated mice was 17.25 (SD+/−7.09) and 9.11 (SD+/−4.96) for sobetirome (p<0.01).
This study was performed to assess the effects of sobetirome on EAE in C57BL/6 female mice immunized with MOG 35-55 peptide. Seventeen days after immunization, at peak of clinical disease, mice were randomized to receive daily injections of sobetirome (1 mg/kg/day) or vehicle. After 11 days of treatment, mice were euthanized and processed for histologic examination. […] This is because the degree of inflammation within the spinal cords was similar between the two groups (Table 1) and much of the short term paralysis that occurs in EAE is secondary to effects of inflammation on neural function. […] Much of the effect appears related to protection of axons and myelin from damage (FIG. 3). Thus, sobetirome has a neuroprotective effect that decreases axonal damage and demyelination.

With `Cc1cc(OCC(=O)O)cc(C)c1Cc1ccc(O)c(C(C)C)c1` [Sobetirome] the “areas of demyelination compared with vehicle” value [1] was “much smaller areas of demyelination”, the “% CD4 Staining (T cell marker)” value ([2]; immunofluorescent staining of lumbosacral spinal cord sections, vehicle 1.01) was 1.24% and the “% CD11b Staining (macrophage marker)” value ([2]; immunofluorescent staining of lumbosacral spinal cord sections, vehicle 3.89) was 5.76%. The “EAE clinical scores versus vehicle” value ([2]; sobetirome 1 mg/kg/day, 11 days of treatment from day 17 after immunization) was “did not differ significantly”, the “demyelination in lateral columns of the lumbosacral cord versus vehicle” value ([2]; sobetirome 1 mg/kg/day, 11 days of treatment, p<0.01) was “significantly less demyelination” and the “mean percentage of ventrolateral demyelination (area of damage in ventrolateral white matter)” value ([2]; spinal cord, after 11 days of daily i.p. treatment started day 17 post immunization, n=8, vehicle 17.25 (SD+/−7.09), p<0.01) was 9.11 (SD+/−4.96) %.
`N[C@@H](Cc1cc(I)c(Oc2ccc(O)c(I)c2)c(I)c1)C(=O)O` [T3, triiodothyronine] was tested, and the “areas of demyelination compared with vehicle” value [1] was “much smaller areas of demyelination”.

From patent US11510887B2, “Sobetirome in the treatment of myelination diseases” (Oregon Health & Science University, priority 2013, dated 2022)
